Legend:
[1] = system: PD1-ss+10aa/Gaussia Luciferase; experiment: Dox-Induced PD1-ss-Gluc Assay; format: cell-based; settings: 24 hr Dox induction; 293FRT/TO cells; mean; read-out: 24 hr Dox Inducible PD1ssGluc 293FRT/TO: Mean IC50
Outline: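 Flp-In 293 T-REx cells stably carrying a doxycycline-inducible Gaussia luciferase fused to the PD1 signal sequence plus 10 aa were plated the day before. Compound dilutions in DMSO/media containing doxycycline were then added and incubated at 37 °C, 5% CO2. Data for undefined stereochemistry refer to stereoisomer mixtures.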

[2] = system: TNFα-FL/Gaussia Luciferase; experiment: Dox Induced TNFα-FL-Gluc Assay; format: cell-based; settings: for IC50: 24 hr Dox induction, 293FRT/TO cells, mean, read-out: 24 hr Dox Inducible TNFaFLGluc 293FRT/TO: Mean IC50; for 24 hr Dox Inducible TNFaFLGluc 293FRT/TO: TNF/PD1: ratio of TNFaFLGluc IC50 to PD1ssGluc IC50, '<=>' given where both are I.A.
Outline: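 Stereoisomer mixtures were tested where stereochemistry is not drawn. Induction used doxycycline added together with compound dilutions in DMSO/media to Flp-In 293 T-REx cells carrying a T-REx-regulated TNFα (aa 1-233)-Gaussia luciferase construct, then incubated at 37 °C, 5% CO2.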

[3] = system: HER3-ss+4aa/Gaussia Luciferase; experiment: Dox-Induced Her3-ss-Gluc Assay; format: cell-based; settings: 24 hr Dox induction; 293FRT/TO cells; mean; read-out: 24 hr Dox Inducible Her3(ss + 4)Gluc 293FRT/TO: Mean IC50
Outline: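 Cells were seeded a day ahead, then given compound diluted in DMSO/media with doxycycline to induce expression of the HER3 signal sequence (+4 aa)–Gaussia luciferase fusion. Incubation was at 37° C., 5% CO2, in a stable Flp-In 293 T-REx line.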

[4] = system: IL-2-FL/Gaussia Luciferase; experiment: Dox Induced IL2-FL-Gluc Assay; format: cell-based; settings: for IC50: 24 hr Dox induction, 293FRT/TO cells, mean, read-out: 24 hr Dox Inducible IL2FLGluc 293FRT/TO: Mean IC50; for 24 hr Dox Inducible IL2FLGluc 293FRT/TO: IL2/PD1: ratio of IL2FLGluc IC50 to PD1ssGluc IC50, '<=>' given where both are I.A.
Outline: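 Cells are plated one day ahead, then receive compound dilutions in DMSO/media with doxycycline and incubate at 37° C, 5% CO2. They are Flp-In 293 T-REx cells expressing a full-length IL-2 (amino acids 1-153)–Gaussia luciferase fusion under T-REx control.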

[5] = system: multiple myeloma cell line NCI-H929; experiment: H929 Cell Viability Assay; format: cell-based, human; settings: Homo sapiens, NCI-H929, 48 h, NCI-H929 cells, Celltiter-Glo
Outline: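 Luminescent ATP detection (CellTiter-Glo) after 48 hours of compound exposure measures viability. Cells were plated in RPMI 1640 containing 10% fetal bovine serum and kept at 37° C under 5% CO2.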

[6] = system: multiple myeloma cell line U266B1; experiment: U266 Cell Viability Assay; format: cell-based, human; settings: Homo sapiens, U-266, 48 h, U266B1 cells, Celltiter-Glo
Outline: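 Steps: culture in RPMI 1640 plus 10% FBS and 2 mM glutamine; plate and add compound dilutions; incubate 48 hours at 37° C., 5% CO2; add CellTiter-Glo and quantify luciferase signal.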

[7] = Liver Microsome Stability Assay (rat); settings: rat liver microsomes, with NADPH, 1.0 uM compound
Procedure: (§1) Stability of a compound was assessed in the presence of liver microsomes from various sources—mouse, rat, monkey and human liver microsomes. 1.0 uM compound, 0.4% DMSO in 0.1 M Potassium Phosphate with 1.0 mg/mL liver microsomes, were incubated at 37° C. with or without 1 mM NADPH. The samples were quenched at 0, and 30 minutes.

[8] = Liver Microsome Stability Assay (mouse); settings: mouse liver microsomes, with NADPH, 1.0 uM compound
Procedure: as §1

[9] = Liver Microsome Stability Assay (human); settings: human liver microsomes, with NADPH, 1.0 uM compound
Procedure: as §1

[10] = Liver Microsome Stability Assay (monkey); settings: monkey liver microsomes, with NADPH, 1.0 uM compound
Procedure: as §1

| Compound | IC50 [1] [µM] | IC50 [2] [µM] | 24 hr Dox Inducible TNFaFLGluc 293FRT/TO: TNF/PD1 [2] | IC50 [3] [µM] | IC50 [4] [µM] | 24 hr Dox Inducible IL2FLGluc 293FRT/TO: IL2/PD1 [4] | EC50 [5] [µM] | EC50 [6] [µM] | Liver Microsome Stability (Multiple Species): Rat - % Remaining after 30 min w/NADPH [7] [%] | Liver Microsome Stability (Multiple Species): Mouse - % Remaining after 30 min w/NADPH [8] [%] | Liver Microsome Stability (Multiple Species): Human - % Remaining after 30 min w/NADPH [9] [%] | Liver Microsome Stability (Multiple Species): Monkey - % Remaining after 30 min w/NADPH [10] [%] |
| --- | --- | --- | --- | --- | --- | --- | --- | --- | --- | --- | --- | --- |
| O=C(Nc1nc([C@H]2CCCN2c2ccc(C(F)(F)F)cc2)cs1)c1cccn1CC1CCOCC1 [Compound C91, (R)-1-((tetrahydro-2H-pyran-4-yl)methyl)-N-(4-(1-(4-(trifluoromethyl)phenyl)pyrrolidin-2-yl)thiazol-2-yl)-1H-pyrrole-2-carboxamide] | 0.0934 | 1.24 | 13.3 | 0.127 | 0.345 | 3.7 | 4.21 | > 25 | 41.8 | 88.3 | 67.8 | 28.2 |
| O=C(Nc1nc([C@H]2CCCN2c2ccccc2)cs1)c1cccn1CCCC1CCOC1 (stereo partly drawn) [Compound C92, N-(4-((R)-1-phenylpyrrolidin-2-yl)thiazol-2-yl)-1-(3-(tetrahydrofuran-3-yl)propyl)-1H-pyrrole-2-carboxamide] | 2.21 | 24.5 | 11.1 | 3.01 | 5.55 | 2.5 | 22 | > 25 | 3.9 | 15.8 | 7.96 | 5.09 |
| N#CCc1ccccc1Cn1cccc1C(=O)Nc1nc([C@H]2CCCN2c2ccccc2)cs1 [Compound C93, (R)-1-(2-(cyanomethyl)benzyl)-N-(4-(1-phenylpyrrolidin-2-yl)thiazol-2-yl)-1H-pyrrole-2-carboxamide] | 4.27 | > 25 | >5.86 | 1.08 | 1.63 | 0.38 | > 25 | > 25 | 1.23 | 16.3 | 3.12 | 6.79 |
| O=C(Nc1nc([C@H]2CCCN2c2ccccc2)cs1)c1cccn1CC1CC(F)(F)C1 [Compound C94, (R)-1-((3,3-difluorocyclobutyl)methyl)-N-(4-(1-phenylpyrrolidin-2-yl)thiazol-2-yl)-1H-pyrrole-2-carboxamide] | 3.59 | > 25 | >6.97 | 2.4 | 3.66 | 1 | > 25 | > 25 | 20.7 | 52.1 | 63.4 | 10.6 |
| CCc1ccc(N2CCC[C@@H]2c2csc(NC(=O)c3cccn3Cc3ccncc3)n2)cn1 [Compound C95, (R)-N-(4-(1-(6-ethylpyridin-3-yl)pyrrolidin-2-yl)thiazol-2-yl)-1-(pyridin-4-ylmethyl)-1H-pyrrole-2-carboxamide] | 0.00505 | 0.104 | 20.5 | 0.0035 | 0.0155 | 3.1 | 0.127 | 19.6 | 1.89 | 0.28 | 0.44 | 0.11 |
| CCc1ccc(N2CCC[C@@H]2c2csc(NC(=O)c3cccn3CC3CCOCC3)n2)cn1 [Compound C96, (R)-N-(4-(1-(6-ethylpyridin-3-yl)pyrrolidin-2-yl)thiazol-2-yl)-1-((tetrahydro-2H-pyran-4-yl)methyl)-1H-pyrrole-2-carboxamide] | 0.0637 | 0.943 | 14.8 | 0.0596 | 0.28 | 4.4 | 2.96 | > 25 | 0.76 | 6.58 | 0.07 | 0.13 |
| O=C(Nc1nc([C@H]2CCCN2c2ccccc2)cs1)c1cccn1CCC1COC1 [Compound C99, (R)-1-(2-(oxetan-3-yl)ethyl)-N-(4-(1-phenylpyrrolidin-2-yl)thiazol-2-yl)-1H-pyrrole-2-carboxamide] | 1.72 | 16.8 | 9.72 | 2.83 | 5.38 | 3.1 | 21.9 | > 25 | 4.12 | 19.1 | 26.1 | 0.26 |
| N#CC[C@H](O)Cn1cccc1C(=O)Nc1nc([C@H]2CCCN2c2ccccc2)cs1 [Compound C100, 1-((S)-3-cyano-2-hydroxypropyl)-N-(4-((R)-1-phenylpyrrolidin-2-yl)thiazol-2-yl)-1H-pyrrole-2-carboxamide] | 7.64 | > 25 | >3.27 | 15.9 | 6.46 | 0.85 | > 25 | > 25 | 13.6 | 19.8 | 19.1 | 18.5 |

From patent US20230286973A1, “PROTEIN SECRETION INHIBITORS” (KEZAR LIFE SCIENCES, priority 2020, published 2023)
